Laboratory results reported in publication PMC8752738, “A propolis-derived small molecule ameliorates metabolic syndrome in obese mice by targeting the CREB/CRTC2 transcriptional complex” (Nature Communications, 2022).
Several values for one entry are separate records, joined by “and”; a condition that tells them apart may be missing. Equal entries are not always repeated.

Columns and labels:
[1] = Body weight and body composition (living NMR) of mice; format: in vivo, mouse; conditions: for body weight of db/db ip APC: individual animals; for body weight of db/db ip APC, group mean: N 6; for Body weight, group mean: N=7; for Body weight: individual mice
Description: All animal experiments were performed according to procedures approved by the Shanghai Institutes for Biological Sciences (SIBS) Animal Care and Use Committee. The db/db mice (stock NO. 000642 C57BL/6J, JACKSON) were purchased from the Jackson laboratory. The 8–10-week-old wild-type C57BL/6 and ICR/JCL mice were purchased from the Shanghai Laboratory Animal Center. Mice were housed in the animal facility at SIBS, in which mice were maintained on a 12-h light/12-h dark cycle for at least 2 weeks before the study and had free access to water and a regular diet (12% fat). For high-fat-induced obesity mice (DIO), high-fat diet (60% fat, Research Diets) was fed to wild-type mice for at least 13–15 weeks and glucose-tolerance tests were performed to confirm the development of diabetes in these mice. After being euthanized, samples were collected. Unless specified, male mice were used for these experiments.
Under the condition of non-anesthesia and non-invasion, the composition of fat and lean in live mice was analyzed by nuclear magnetic resonance (NMR, The Minispec, Bruker) according to the operational manual.

[2] = Blood chemistry (plasma hormones by ELISA); format: in vivo, mouse
Description: The plasma hormone levels of insulin and ghrelin were measured by ELISA kits from Millipore, glucagon and leptin were determined by ELISA kits from R&D.

[3] = db/db mice, mean, sample size 7
[4] = DIO mice, APC 10mg/kg, group mean, n=6
[5] = DIO mice, APC 10mg/kg, individual mouse
[6] = DIO mice, APC 20mg/kg, individual mouse

Structure (SMILES): CC(C)=CCc1cc(C=CC(=O)O)cc(CC=C(C)C)c1O [APC, 3,5-diprenyl-4-hydroxycinnamic acid]
- body weight of db/db ip APC ([1]; db/db mice, 0W): 45.4 g and 45.3 g and 44.6 g and 40 g and 47.8 g and 44 g
- body weight of db/db ip APC ([1]; db/db mice, 1W): 48.6 g and 47.9 g and 47.4 g and 42.5 g and 49.5 g and 45.9 g
- body weight of db/db ip APC, group mean ([1]; db/db mice, 1W, mean): 46.97 g
- body weight of db/db ip APC ([1]; db/db mice, 2W): 48.4 g and 47.9 g and 47.3 g and 41.7 g and 48.9 g and 45.9 g
- body weight of db/db ip APC ([1]; db/db mice, 4W): 47.9 g and 46.5 g and 48.1 g and 42.5 g and 45.8 g and 47.8 g
- body weight of db/db ip APC, group mean ([1]; db/db mice, 4W, mean): 46.43 g
- body weight of db/db ip APC ([1]; db/db mice, 5W): 47.9 g and 45.3 g and 47.8 g and 44.9 g and 46.8 g and 48.5 g
- body weight of db/db ip APC, group mean ([1]; db/db mice, 5W, mean): 46.87 g
- fat of db/db mice, group mean [1, 3]: 17.08 g
- fat/lean ratio of db/db mice, group mean [1, 3]: 1.234
- Body weight, group mean ([1]; lean WT mice ip APC, 8w, in g (unit assumed)): 20.96
- Body weight ([1]; lean WT mice ip APC, 8w): 21.4 g and 21.2 g and 20.1 g and 20.5 g and 21.7 g and 20.9 g (2×) and 21.6 g
- Body weight, column mean over all weeks ([1]; lean WT mice ip APC, 8w-15w, in g (unit assumed)): 22.98
- Body weight, group mean ([1]; lean WT mice ip APC, 10w, in g (unit assumed)): 22.01
- Body weight ([1]; lean WT mice ip APC, 10w): 23.62 g and 20.96 g and 22.95 g and 20.89 g and 22.05 g and 22.38 g and 21.2 g and 21.22 g
- Body weight, group mean ([1]; lean WT mice ip APC, 12w, in g (unit assumed)): 23.14
- Body weight ([1]; lean WT mice ip APC, 12w): 25.7 g and 21.4 g and 23.7 g and 23 g and 24.2 g and 22.5 g and 23.3 g and 21.5 g
- Body weight, group mean ([1]; lean WT mice ip APC, 13w, in g (unit assumed)): 24.08
- Body weight ([1]; lean WT mice ip APC, 13w): 25.85 g and 22.7 g and 24.7 g and 23.6 g and 24.5 g and 24.21 g and 23.8 g and 23 g
- Body weight, group mean ([1]; lean WT mice ip APC, 15w, in g (unit assumed)): 24.72
- Body weight ([1]; lean WT mice ip APC, 15w): 27.03 g and 22.8 g and 25.2 g and 23.7 g and 26 g and 24.5 g and 23.5 g and 23.8 g
- RER, body weight and plasma NEFA levels of lean mice ([1]; lean wild C57 mice, i.p. 20 mg/kg, 3 weeks): little effect
- plasma insulin and glucagon levels ([2]; DIO and db/db mice): without a change
- leptin levels ([2]; DIO mice): not significant
- plasma glucagon in DIO, mean [2, 4]: 109 ng/dL
- plasma leptin in DIO, mean [2, 4]: 54.89 ng/mL
- plasma glucagon in DIO [2, 5]: 116.57 ng/dL and 100.35 ng/dL and 100.46 ng/dL and 94.57 ng/dL and 118.78 ng/dL and 123.34 ng/dL
- plasma leptin in DIO [2, 5]: 54.49 ng/mL and 52.07 ng/mL and 53.5 ng/mL and 46.64 ng/mL and 59.49 ng/mL and 63.13 ng/mL
- plasma glucagon in DIO, mean ([2]; DIO mice, APC 20mg/kg, group mean, n=6): 102.8 ng/dL
- plasma glucagon in DIO [2, 6]: 108 ng/dL and 94.83 ng/dL and 125.84 ng/dL and 81.38 ng/dL and 93.2 ng/dL and 113.74 ng/dL
- plasma leptin in DIO [2, 6]: 64.99 ng/mL and 59.47 ng/mL and 49.46 ng/mL and 54.02 ng/mL and 54.7 ng/mL and 57.91 ng/mL
- Plasma Insulin, mean ([2]; Figure 8e, APC 10mg/kg, group mean, n=5, VEH mean 5.378): 4.88 ng/mL
- Plasma Insulin ([2]; Figure 8e, APC 10mg/kg, individual mice): 5.624 ng/mL and 3.217 ng/mL and 4.483 ng/mL and 6.089 ng/mL and 4.987 ng/mL
- Plasma Insulin, mean ([2]; Figure 8e, APC 20mg/kg, group mean, n=5, VEH mean 5.378): 4.334 ng/mL
- Plasma Insulin ([2]; Figure 8e, APC 20mg/kg, individual mice): 3.191 ng/mL and 4.624 ng/mL and 5.384 ng/mL and 4.549 ng/mL and 3.923 ng/mL
- leptin levels ([2]; db/db mice): effectively reduced
- plasma ghrelin ([2]; db/db mice): no significant effects
- Plasma Insulin, mean ([2]; db/db mice, group mean, n=6): 12.2 ng/mL
- plasma glucagon in db/db, mean ([2]; db/db mice, group mean, n=6): 266 ng/dL
- Plasma Insulin ([2]; db/db mice, individual mouse): 9.327 ng/mL and 11.259 ng/mL and 11.886 ng/mL and 10.188 ng/mL and 13.359 ng/mL and 17.190 ng/mL
- plasma glucagon in db/db ([2]; db/db mice, individual mouse): 251.14 ng/dL and 274.24 ng/dL and 342.64 ng/dL and 244.9 ng/dL and 187.78 ng/dL and 295.42 ng/dL
- plasma Ghrelin in db/db ip APC ([2]; db/db mice, ip APC, single animals): 12.653 ng/mL and 14.269 ng/mL and 10.885 ng/mL and 7.483 ng/mL and 8.587 ng/mL
- Plasma leptin, mean of column B (APC) ([2]; db/db mice, group mean (Figure 8l), n=5, VEH mean 1.196): 0.714 ng/mL
- Plasma leptin ([2]; db/db mice, individual animals (Figure 8l), n=5): 0.7357 ng/mL and 0.6738 ng/mL and 0.8588 ng/mL and 0.5919 ng/mL and 0.7100 ng/mL
